Values of other authors, collected in patent US20250114388A1, “ACTIVE PHARMACEUTICAL INGREDIENT COMPOSITIONS AND PREPARATION AND USES THEREOF” (Dr. Anti Fungus, LLC, priority 2023, published 2025).
*1 amine or outer side, *2 acyl side, *3 side chain or, on linkers, in order; H or OH if unused. Where a SMILES comes first, the peptide text is derived from it. Bridges are numbered along the chain shown (N, C = ends). [ ]: non-standard residue; d: D form. The star is where a group is joined. pTerphenylCO(4''-OnC5H11) = CCCCCOc1ccc(-c2ccc(-c3ccc(C(=O)*)cc3)cc2)cc1; Orn(4R-OH,5R-OH) = O=C([C@H](C[C@@H](O)[C@@H](O)N[*:3])N[*:1])[*:2]; hTyr(3S-OH,4S-OH) = N[C@H](C(=O)O)[C@H](O)[C@@H](O)c1ccc(O)cc1; Pro(3S-OH,4S-Me) = C[C@H]1CN[C@H](C(=O)O)[C@H]1O; Hyp = O=C(O)[C@@H]1C[C@@H](O)CN1

| solubility in water | Structure (SMILES) |
| --- | --- |
| insoluble | Clc1ccccc1C(c1ccccc1)(c1ccccc1)n1ccnc1 [clotrimazole] |
| insoluble | Clc1ccc(COC(Cn2ccnc2)c2ccc(Cl)cc2Cl)cc1 (centres unmarked) [econazole] |
| sparingly soluble | OC(Cn1cncn1)(Cn1cncn1)c1ccc(F)cc1F [fluconazole] |
| insoluble | CCC(C)n1ncn(-c2ccc(N3CCN(c4ccc(OCC5COC(Cn6cncn6)(c6ccc(Cl)cc6Cl)O5)cc4)CC3)cc2)c1=O (centres unmarked) [itraconazole] |
| insoluble | Clc1ccc(COC(Cn2ccnc2)c2ccc(Cl)cc2Cl)c(Cl)c1 (centres unmarked) [miconazole] |
| sparingly soluble | CN(C/C=C/C#CC(C)(C)C)Cc1cccc2ccccc12 [terbinafine] |
| insoluble | Cc1cccc(N(C)C(=S)Oc2ccc3ccccc3c2)c1 [tolnaftate] |

| Structure (SMILES) | solubility in water |
| --- | --- |
| C[C@@H]1[C@H](O)[C@@H](C)/C=C/C=C/C=C/C=C/C=C/C=C/C=C/[C@H](O[C@@H]2O[C@H](C)[C@@H](O)[C@H](N)[C@@H]2O)C[C@@H]2O[C@](O)(C[C@@H](O)C[C@@H](O)[C@H](O)CC[C@@H](O)C[C@@H](O)CC(=O)O[C@H]1C)C[C@H](O)[C@H]2C(=O)O [amphotericin B] | insoluble |
| CCCCCOc1ccc(-c2ccc(-c3ccc(C(=O)N[C@H]4C[C@@H](O)[C@@H](O)NC(=O)[C@@H]5[C@@H](O)[C@@H](C)CN5C(=O)[C@H]([C@@H](C)O)NC(=O)[C@H]([C@H](O)[C@@H](O)c5ccc(O)cc5)NC(=O)[C@@H]5C[C@@H](O)CN5C(=O)[C@H]([C@@H](C)O)NC4=O)cc3)cc2)cc1 [anidulafungine] ({pTerphenylCO(4''-OnC5H11)}-[Orn(4R-OH,5R-OH)]T[Hyp][hTyr(3S-OH,4S-OH)]T[Pro(3S-OH,4S-Me)]; lactam 1-C) | insoluble |
| CC(=O)N1CCN(c2ccc(OCC3COC(Cn4ccnc4)(c4ccc(Cl)cc4Cl)O3)cc2)CC1 (centres unmarked) [ketoconazole] | insoluble |
| C[C@@H]1[C@H](O)[C@@H](C)/C=C/C=C/CC/C=C/C=C/C=C/C=C/C(O[C@H]2O[C@H](C)[C@@H](O)[C@H](N)[C@@H]2O)CC2O[C@](O)(CC(O)C(O)CCC(O)CC(O)CC(O)CC(=O)O[C@H]1C)CC(O)C2C(=O)O (some centres unmarked) [nystatin] | sparingly soluble |
